Assay results from ChEMBL document CHEMBL3885861, “Open TG-GATES”.

Species on record: Rattus norvegicus
Assay: Open TG-GATES - Regimen: Single
Format: toxicity, organism-based, Sprague-Dawley
Set-up: regimen Single, gender Male, age 6 weeks
Conditions: in vivo, po, 1000 mg/kg, route gavage, dose level Middle; for APTT / Bas / Eos / Fbg / Hb / Ht / Lym / MCH / MCHC / MCV / Mono / Neu / PT / Plat / RBC / Ret / WBC: tissue Blood; for KIDNEY_L / KIDNEY_R / KIDNEY_TOTAL: tissue Kidney; for LIVER: tissue Liver; for A/G / ALP / ALT / AST / BUN / CRE / Ca / Cl / DBIL / GLC / IP / K / LDH / Na / PL / RALB / TBIL / TC / TG / TP / gamma-GTP: tissue Plasma

SMILES: CCN1CCCC1CNC(=O)c1cc(S(N)(=O)=O)ccc1OC (configuration not stated) [SULPIRIDE]
- TERMINAL_BW (3 h): 201.4 g
- APTT (3 h): 17.3 s
- Bas (3 h): 0%
- Eos (3 h): 0.6%
- Fbg (3 h): 253.4 mg/dL
- Hb (3 h): 12.6 g/dL
- Ht (3 h): 39.6%
- Lym (3 h): 78.4%
- MCH (3 h): 20.8 pg
- MCHC (3 h): 31.8%
- MCV (3 h): 65.2 fL
- Mono (3 h): 3.4%
- Neu (3 h): 16.8%
- PT (3 h): 13.6 s
- Plat (3 h): 109.3 x10_4/uL
- RBC (3 h): 608 x10_4/ul
- Ret (3 h): 8.1%
- WBC (3 h): 83.5 x10_2/uL
- KIDNEY_L (3 h): 0.9 g
- KIDNEY_R (3 h): 0.9 g
- KIDNEY_TOTAL (3 h): 1.8 g
- LIVER (3 h): 9.2 g
- A/G (3 h): 0.9
- ALP (3 h): 1375.8 IU/L
- ALT (3 h): 36.6 IU/L
- AST (3 h): 74.2 IU/L
- BUN (3 h): 10.4 mg/dL
- CRE (3 h): 0.2 mg/dL
- Ca (3 h): 10.8 mg/dL
- Cl (3 h): 106.6 meq/L
- DBIL (3 h): 0.004 mg/dL
- GLC (3 h): 169.8 mg/dL
- IP (3 h): 8.2 mg/dL
- K (3 h): 4 meq/L
- LDH (3 h): 116.6 IU/L
- Na (3 h): 142.6 meq/L
- PL (3 h): 126.2 mg/dL
- RALB (3 h): 2.4 g/dL
- TBIL (3 h): 0.068 mg/dL
- TC (3 h): 63.4 mg/dL
- TG (3 h): 54.2 mg/dL
- TP (3 h): 5.1 g/dL
- gamma-GTP (3 h): 1.8 IU/L
- TERMINAL_BW (6 h): 201.9 g
- APTT (6 h): 18.2 s
- Bas (6 h): 0.2%
- Eos (6 h): 0.8%
- Fbg (6 h): 279.2 mg/dL
- Hb (6 h): 13.1 g/dL
- Ht (6 h): 40.9%
- Lym (6 h): 79.6%
- MCH (6 h): 20.9 pg
- MCHC (6 h): 32.1%
- MCV (6 h): 65.2 fL
- Mono (6 h): 3%
- Neu (6 h): 15.8%
- PT (6 h): 13.5 s
- Plat (6 h): 123.7 x10_4/uL
- RBC (6 h): 628.2 x10_4/ul
- Ret (6 h): 8.4%
- WBC (6 h): 61.1 x10_2/uL
- KIDNEY_L (6 h): 0.9 g
- KIDNEY_R (6 h): 0.9 g
- KIDNEY_TOTAL (6 h): 1.7 g
- LIVER (6 h): 8.4 g
- A/G (6 h): 0.9
- ALP (6 h): 1420 IU/L
- ALT (6 h): 35.2 IU/L
- AST (6 h): 69.8 IU/L
- BUN (6 h): 8 mg/dL
- CRE (6 h): 0.2 mg/dL
- Ca (6 h): 10.7 mg/dL
- Cl (6 h): 107.4 meq/L
- DBIL (6 h): 0.006 mg/dL
- GLC (6 h): 175 mg/dL
- IP (6 h): 8.9 mg/dL
- K (6 h): 4.1 meq/L
- LDH (6 h): 101.8 IU/L
- Na (6 h): 142 meq/L
- PL (6 h): 137.8 mg/dL
- RALB (6 h): 2.4 g/dL
- TBIL (6 h): 0.07 mg/dL
- TC (6 h): 76.2 mg/dL
- TG (6 h): 45.6 mg/dL
- TP (6 h): 5.1 g/dL
- gamma-GTP (6 h): 1.4 IU/L
- TERMINAL_BW (9 h): 201.7 g
- APTT (9 h): 17.2 s
- Bas (9 h): 0%
- Eos (9 h): 1%
- Fbg (9 h): 308 mg/dL
- Hb (9 h): 13.7 g/dL
- Ht (9 h): 43%
- Lym (9 h): 71.2%
- MCH (9 h): 20.7 pg
- MCHC (9 h): 31.8%
- MCV (9 h): 65 fL
- Mono (9 h): 3.6%
- Neu (9 h): 23.8%
- PT (9 h): 13.3 s
- Plat (9 h): 131.4 x10_4/uL
- RBC (9 h): 661 x10_4/ul
- Ret (9 h): 7.7%
- WBC (9 h): 64.3 x10_2/uL
- KIDNEY_L (9 h): 0.9 g
- KIDNEY_R (9 h): 0.9 g
- KIDNEY_TOTAL (9 h): 1.8 g
- LIVER (9 h): 8.3 g
- A/G (9 h): 0.9
- ALP (9 h): 1435.8 IU/L
- ALT (9 h): 28.6 IU/L
- AST (9 h): 63.2 IU/L
- BUN (9 h): 7.6 mg/dL
- CRE (9 h): 0.2 mg/dL
- Ca (9 h): 10.7 mg/dL
- Cl (9 h): 107.6 meq/L
- DBIL (9 h): 0.002 mg/dL
- GLC (9 h): 178.2 mg/dL
- IP (9 h): 9.7 mg/dL
- K (9 h): 4 meq/L
- LDH (9 h): 106.2 IU/L
- Na (9 h): 141.6 meq/L
- PL (9 h): 151 mg/dL
- RALB (9 h): 2.5 g/dL
- TBIL (9 h): 0.066 mg/dL
- TC (9 h): 83.8 mg/dL
- TG (9 h): 65.2 mg/dL
- TP (9 h): 5.3 g/dL
- gamma-GTP (9 h): 1.2 IU/L
- TERMINAL_BW (24 h): 214.6 g
- APTT (24 h): 17.3 s
- Bas (24 h): 0%
- Eos (24 h): 1%
- Fbg (24 h): 290.8 mg/dL
- Hb (24 h): 13.9 g/dL
- Ht (24 h): 42.1%
- Lym (24 h): 77.8%
- MCH (24 h): 20.7 pg
- MCHC (24 h): 32.9%
- MCV (24 h): 62.9 fL
- Mono (24 h): 2.4%
- Neu (24 h): 18.4%
- PT (24 h): 12.8 s
- Plat (24 h): 123 x10_4/uL
- RBC (24 h): 670.2 x10_4/ul
- Ret (24 h): 6.7%
- WBC (24 h): 66.8 x10_2/uL
- KIDNEY_L (24 h): 0.9 g
- KIDNEY_R (24 h): 0.9 g
- KIDNEY_TOTAL (24 h): 1.9 g
- LIVER (24 h): 9.4 g
- A/G (24 h): 0.9
- ALP (24 h): 1599.4 IU/L
- ALT (24 h): 46 IU/L
- AST (24 h): 67.6 IU/L
- BUN (24 h): 17.2 mg/dL
- CRE (24 h): 0.2 mg/dL
- Ca (24 h): 11.2 mg/dL
- Cl (24 h): 105.2 meq/L
- DBIL (24 h): 0.018 mg/dL
- GLC (24 h): 178.8 mg/dL
- IP (24 h): 8.6 mg/dL
- K (24 h): 4.4 meq/L
- LDH (24 h): 145.4 IU/L
- Na (24 h): 142 meq/L
- PL (24 h): 157.6 mg/dL
- RALB (24 h): 2.6 g/dL
- TBIL (24 h): 0.056 mg/dL
- TC (24 h): 83 mg/dL
- TG (24 h): 112.4 mg/dL
- TP (24 h): 5.7 g/dL
- gamma-GTP (24 h): 1 IU/L
